# Measurements reported in paper PMC7956174, “Probing the Role of the Conserved Arg174 in Formate Dehydrogenase by Chemical Modification and Site-Directed Mutagenesis” (Molecules, 2021).
# Where two headings read alike, the source gives them in different places.
# T1: CbFDH (Candida boidinii formate dehydrogenase) ([Candida] boidinii, UniProt O13437)
# T1 construct: gene FDH1; no tag told
# T1 sequence (O13437 1-364): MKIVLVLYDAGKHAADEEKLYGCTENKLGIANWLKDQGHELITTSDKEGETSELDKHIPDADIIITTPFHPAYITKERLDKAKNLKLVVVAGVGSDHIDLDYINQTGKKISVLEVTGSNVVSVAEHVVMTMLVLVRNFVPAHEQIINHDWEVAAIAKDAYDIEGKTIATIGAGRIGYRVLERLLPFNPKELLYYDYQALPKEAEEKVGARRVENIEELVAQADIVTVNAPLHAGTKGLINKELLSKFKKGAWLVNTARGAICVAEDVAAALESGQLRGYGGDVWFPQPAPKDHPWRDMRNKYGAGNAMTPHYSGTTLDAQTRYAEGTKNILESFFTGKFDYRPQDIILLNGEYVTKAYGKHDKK
# What was measured:
# [1] = target: T1, CbFDH (Candida boidinii formate dehydrogenase); experiment: steady-state inhibition kinetics; format: biochemical
# Text: steady-state inhibition kinetics on CbFDH (Candida boidinii formate dehydrogenase)
# steady-state kinetics = substrate: O=CO; experiment: steady-state kinetics; format: biochemical, [Candida] boidinii; details: 0.1 M potassium phosphate pH 7.5, 25 °C, co-substrate NAD+
# Text: steady-state kinetics on CbFDH (Candida boidinii formate dehydrogenase)
molecule,measurement,setting,value
Nc1ncnc2c1ncn2[C@@H]1O[C@H](COP(=O)(O)O)[C@@H](O)[C@H]1O [AMP],Ki,[1]; read-out: Ki (mM) (AMP),1.6 ± 0.1 mM
NC(=O)C1=CN([C@@H]2O[C@H](COP(=O)(O)OP(=O)(O)OC[C@H]3O[C@@H](n4cnc5c(N)ncnc54)[C@H](O)[C@@H]3O)[C@@H](O)[C@H]2O)C=CC1 [NADH],Ki,[1]; read-out: Ki (mM) (NADH),0.03 ± 0.005 mM
"CbFDH (Candida boidinii formate dehydrogenase) ([Candida] boidinii) (protein, no tag told) MKIVLVLYDAGKHAADEEKLYGCTENKLGIANWLKDQGHELITTSDKEGETSELDKHIPDADIIITTPFHPAYITKERLDKAKNLKLVVVAGVGSDHIDLDYINQTGKKISVLEVTGSNVVSVAEHVVMTMLVLVRNFVPAHEQIINHDWEVAAIAKDAYDIEGKTIATIGAGRIGYRVLERLLPFNPKELLYYDYQALPKEAEEKVGARRVENIEELVAQADIVTVNAPLHAGTKGLINKELLSKFKKGAWLVNTARGAICVAEDVAAALESGQLRGYGGDVWFPQPAPKDHPWRDMRNKYGAGNAMTPHYSGTTLDAQTRYAEGTKNILESFFTGKFDYRPQDIILLNGEYVTKAYGKHDKK",Km,steady-state kinetics,2400 ± 100 µM
